# Where two headings read alike, the source gives them in different places. Where a SMILES comes first, the peptide text is derived from it. The star is where a group is joined. Palmitoyl = CCCCCCCCCCCCCCCC(=O)*
# Columns and labels:
# PAR1 [1] = molecular target: T1, PAR1 (Homo sapiens, UniProt P25116); assay: TRIP-PCI phase 2 study in patients with CAD/ACS undergoing cardiac catheterization; type: in vivo; details: 9 patients with heart failure, EFs 30-53%
# T1 construct: delivered intravenously in 100 patients with coronary artery disease (CAD) and acute coronary syndrome (ACS) undergoing cardiac catheterization; endogenous in cells; host or cells: patients of the TRIP-PCI trial (platelets ex vivo; whole body in vivo)
# T1 sequence (P25116 22-425): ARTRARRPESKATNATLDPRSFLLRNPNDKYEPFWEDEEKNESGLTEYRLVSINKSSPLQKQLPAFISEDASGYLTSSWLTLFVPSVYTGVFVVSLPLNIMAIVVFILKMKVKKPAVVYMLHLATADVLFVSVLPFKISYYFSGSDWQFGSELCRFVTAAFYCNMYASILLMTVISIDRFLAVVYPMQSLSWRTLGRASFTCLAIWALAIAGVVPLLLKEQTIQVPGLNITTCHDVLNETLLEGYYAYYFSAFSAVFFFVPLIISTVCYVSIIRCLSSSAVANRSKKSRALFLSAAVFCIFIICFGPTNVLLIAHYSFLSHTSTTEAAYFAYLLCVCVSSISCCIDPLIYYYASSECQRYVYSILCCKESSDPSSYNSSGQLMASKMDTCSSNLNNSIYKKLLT
# Protocol: TRIP-PCI was a multicenter, randomized, double-blind placebo-controlled phase 2 study that examined the safety, tolerability, and efficacy of PZ-128 at two dose levels (0.3 and 0.5 mg/kg, versus placebo, 1:1:1), delivered intravenously in 100 patients with coronary artery disease (CAD) and acute coronary syndrome (ACS) undergoing cardiac catheterization (Kuliopulos et al., Arterioscler. Thromb. Vasc. Biol 40(12):2990-3003, 2020). PAR1 inhibitors are intended to suppress thrombin-induced platelet activation to reduce damage during percutaneous coronary intervention (PCI) and ACS, potentially reducing the risk of myocardial infarction, stroke, and serious adverse events (Mackman et al., Nat. Rev. Drug Discov. 19(5):333-352, 2020). PZ-128 clinical trial participants received a single 2-h intravenous infusion of PZ-128 or placebo started just prior to catheterization along with standard antiplatelet therapy. […] The majority of events occurred within the first 24 h, with a nonsignificant decrease in hazard ratio (HR=0.81) of a MACE/myonecrosis event in the PZ-128 treated groups versus placebo. […]
# PAR1 [2] = details: cited from earlier work
# PAR1 [3] = molecular target: T1, PAR1; details: cited from earlier work
# PAR1 [4] = molecular target: T1, PAR1; details: cited from earlier work; remark: listed apart in the source
smiles,measurement,setting,value
"CCCCCCCCCCCCCCCC(=O)N[C@@H](CCCCN)C(=O)N[C@@H](CCCCN)C(=O)N[C@@H](CO)C(=O)N[C@@H](CCCNC(=N)N)C(=O)N[C@@H](C)C(=O)N[C@@H](CC(C)C)C(=O)N[C@@H](Cc1ccccc1)C(N)=O [PZ-128, Palmitate-KKSRALF-NH2] (Palmitoyl-KKSRALF-NH2)",tolerability in heart failure patients,PAR1 [1],tolerated well
same,mode of action at PAR1,PAR1 [2],full PAR1 antagonists
same,overall safety and tolerability,"PAR1 [3]; 0.3 and 0.5 mg/kg, single 2-h intravenous infusion, 100 patients",safe and well-tolerated
same,hazard ratio of a MACE/myonecrosis event versus placebo,"PAR1 [3]; PZ-128 treated groups, nonsignificant decrease",0.81
same,major adverse coronary events (MACE),"PAR1 [3]; at 30 days, combined PZ-128 dose groups (placebo 6%, P=0.13)",0%
same,major adverse coronary events (MACE),"PAR1 [3]; at 90 days, combined PZ-128 dose groups (placebo 6%, P=0.29)",2%
same,MACE and myocardial injury within 30 days,"PAR1 [3]; subgroup with elevated baseline cardiac troponin I (placebo 83%, P=0.02)",31%
same,primary safety endpoint: bleeding vs vehicle,PAR1 [3]; up to 30 days posttreatment,not significantly different
same,PAR1 aggregation response recovered,PAR1 [4]; at 14 days post-dose,50%
same,time at which inhibition of SFLLRN-induced platelet aggregation could be detected,PAR1 [4]; post-dose,≤ 1 h
same,time of peak inhibition of SFLLRN-induced platelet aggregation,PAR1 [4]; post-dose,24 h

# — patent US20240424053A1, “METHODS AND COMPOSITIONS FOR PROVIDING MYOCARDIAL PROTECTION AND TREATING MYOCARDIAL STRESS AND FIBROSIS” (Tufts Medical Center, Inc., priority 2021, published 2024)
